Data as given in patent EP0059009A1, “Pharmaceutical compositions containing quinoline derivatives as active component, a method for the preparation of such compositions, new quinoline derivatives and a method for the preparation thereof” (ACF Chemiefarma N.V., priority 1981, dated 1982).

Assays:
[1] = test system: guinea pigs; assay: Guinea pigs electrostimulation test (arrhythmias induced by electrostimulation of the right ventricle); assay type: in vivo; details: for Percent increase in voltage (%) required for arrhythmia: given intraduodenally 30 min before stimulation, anaesthetised guinea pigs, treated vs control animals
Method: Arrhythmias are induced in guinea pigs by electro- stimulation of the right ventricle of the heart. The animals are anaesthesized with urethane (1.2 g/kg i.p.) and artificially respirated before a needle electrode is inserted in the right venticle of the heart. Substances are given intraduodinally 30 min. before the stimulation at a standard dose of 32 mg/kg.
The voltage needed for induction of extra systoles in control animals (n = 6) is compared with that required for induction of arrhythmias in treated animals (n = 6).
-This method is based on the work of L. Szekeres and G.J. Papp, Naunyn-Schmiedebergs Arch. Exp. Path. Pharmak., 245, 70 (1963).

[2] = test system: malaria; details: reported by Ainly and King, Proc. Roy. Soc. (London) B 125, 49 (1938); cited from earlier work

Structure (SMILES) | Percent increase in voltage (%) required for arrhythmia ([1]; Dose 32 mg/kg) [%] | Percent increase in voltage (%) required for arrhythmia ([1]; Dose 16 mg/kg) [%] | also measured
C=CC1CNCCC1CCC(O)c1ccnc2ccccc12 (stereo not drawn) [III] | 35 |  | 
CCC1CNCCC1CCC(O)c1ccnc2ccc(OC)cc12 (stereo not drawn) [dihydroquiniconol, dihydroquinicinol] |  |  | anti-malaria activity [2]: did not show anti-malaria activity
CCC1CNCCC1CCC(O)c1ccnc2ccc(OCCC(C)C)cc12 (stereo not drawn) [VII] |  |  | Percent increase in voltage (%) required for arrhythmia ([1]; Dose 23.5 mg/kg): 85%
CCC1CNCCC1CC(O)Cc1ccnc2ccc(OC)cc12 (stereo not drawn) [Reference com-pound of formula 6a, reference compound] |  | 0 | anti-arrhythmic screen using the electro-stimulation test ([1]; result in words, dose not given): inactive
CCC1CNCCC1CCC(O)c1ccnc2ccc(OC)cc12 (stereo not drawn) [II] | 176 | 33.9 | 
C=CC1CNCCC1CCC(O)c1ccnc2ccc(OC)cc12 (stereo not drawn) [I, Quinicinol-l.bifumarate] | 114 | 25 | 
